The results in this text go back to patent publication US20210379153A1, “COMBINATION THERAPIES COMPRISING SIRP ALPHA-BASED CHIMERIC PROTEINS” (Shattuck Labs, Inc., priority 2018, published 2021).

The test system of one assay is parental CHOK1 cells. The experiment in a line: Flow cytometry binding to parental CHOK1 cells. The text has this: Scale is shown and yellow arrows correspond with each identified monomer. A schematic of the hexamer species is shown to the right, depicting dimerization of the Fc domain and trimerization of the CD40L domain. […] Recombinant hSIRPα-Fc, hCD40L-Fc, and hIgG1 were used as positive controls. […] In both panels, the CHOK1 Parental is on the left and the CHOK1/hCD47 is on the right. […] For both graphs, the CHOK1 Parental is on the bottom. […] In this figure, the control is the top curve, the SIRPα-Fc-CD40L is the middle curve, and the anti-CD47 is the bottom curve.
The extracellular domain (ECD) of SIRPα and the ECD of CD40L were fused via an antibody Fc domain to generate SIRPαECD-Fc-CD40LECD chimeric proteins. When human proteins were used, the chimeric protein is referred to as hSIRPα-Fc-CD40L; when murine proteins were used, the chimeric protein is referred to as and mSIRPα-Fc-CD40L. […] The purified protein was then analyzed for the presence of each individual domain by Western blotting using anti-SIRPα, anti-Fc, and anti-CD40L antibodies (FIG. 3A, bottom). […] Next, binding affinities for SIRPα-Fc-CD40L to recombinant CD47, CD40, or Fc receptors were evaluated by surface plasmon resonance (SPR). […] A functional ELISA evaluated whether SIRPα-Fc-CD40L could outcompete a commercially available single-sided SIRPα-Fc control for binding to recombinant CD47 (FIG. 3H).
For orientation: A flow cytometer gives signals particle by particle.

Assay [1] addresses recombinant hCD47 and recombinant hCD40 (Homo sapiens, UniProt P25942+Q08722). The experiment in a line: Functional dual ELISA (hCD40 capture, hCD47-His detection). Type of assay: binding. On the technique in general: In an ELISA, binding on a coated surface is turned into a signal by an enzyme label.
The test system of assay [2] is IFNα1, IFNβ1, CD80 and CD86 expression in macrophages. The experiment in a line: qRT-PCR of macrophages sorted from macrophage:Toledo lymphoma co-cultures. Type of assay: cell-based, human. Also noted: macrophage activation and type I interferon gene expression: dose or concentration left out as unconfirmed. The procedure:
(§1) FIG. 8D: Macrophage:Toledo lymphoma co-cultures were harvested 2 hours into phagocytosis assays in the presence of rituximab ([…]), SIRPα-Fc-CD40L ([…]), or the combination of both agents. Macrophages were isolated by CD11b+ FACS, RNA was prepared, cDNA synthesized, and gene expression (IFNa1, IFNb1, CD80, and CD86) assessed by qRT-PCR. Fold change was calculated using DDCT and values obtained from the housekeeping gene ACTB, and the corresponding values from untreated samples. […] After 2 hours, co-cultures were isolated from tissue culture vessels and were stained with a fluorescently conjugated CD11b antibody to discriminate macrophages. Cells were then assessed by flow cytometry for the co-localization of fluorescent signal from both cells types. Identical assays were set up where macrophages were pre-incubated for 1 hour with 20 μg/mL of a commercially available Fc block cocktail or with 20 μg/mL of a CD40 blocking antibody or with 5 μg/mL of a calreticulin blocking peptide. FIG. 8G: RAW 264.7-Lucia ISG cells were cultured with A20 lymphoma cells in the presence of […] of mSIRPα-Fc-CD40L, recombinant Fc-mCD40L, mSIRPα-Fc, or their combination, 1 mg/mL anti-mCD20, or the combination of mSIRPα-Fc-CD40L and anti-mCD20. After 24-hours type I interferon induced luminescence was assessed using a luminometer. The maximum luminescence (RLU) from each experiment was set to 1, and all other samples were normalized accordingly. Values from repeat experiments are shown.
RNA was prepared from macrophages isolated using fluorescent activated cell sorting (FACS) from SIRPα-Fc-CD40L/Rituximab treated co-cultures macrophages and Toledo lymphoma cells. The RNA was assessed by qRT-PCR for expression of IFNα1 and IFNβ1, and the macrophage activation markers CD80 and CD86.
On the technique in general: In qPCR the cycle at which signal appears reflects the starting amount.

In a further assay the test system is Toledo lymphoma cells. The experiment in a line: Phagocytosis of Toledo lymphoma cells by human monocyte derived macrophages (flow cytometry). It is filed as cell-based. To be noted: combination with rituximab. The procedure: as §1
In contrast, phagocytosis-stimulating activity of the combination was not impacted when macrophages were pre-treated with a CD40-blocking antibody (“CD40 Block”).

Another assay has as its system splenic dendritic cells. The experiment in a line: In vivo splenic dendritic cell activation. Also noted: species or system mice. The following applies: mouse. The procedure:
For each panel, the samples are (left to right): untreated, sheep RBCs, αCD47 (MIAP301), αSIRPα (P84), mSIRPα-Fc-CD40L, mSIRPα-Fc-CD40L (24 Hrs), and αCD47 (MIAP301) (24 hrs). FIG. 9B is a quantitation of in vivo dendritic cell activation corresponding to FIG. 9A. Shown is the absolute percent of CD4+ and CD8+ dendritic cells; also gated on CD11c and DC1R2. In FIG. 9B, for each panel, the samples are (left to right): untreated, sheep RBCs, αCD47 (MIAP301), αSIRPα (P84), SIRPα-Fc-CD40L (150 μg), SIRPα-Fc-CD40L (300 μg), SIRPα-Fc-CD40L (300 μg) (24 Hrs), and αCD47 (MIAP301) (24 hrs).
An in vivo assay to examine SIRPα/CD47 function in mice was describe in Yi et al., “Splenic Dendritic Cells Survey Red Blood Cells for Missing Self-CD47 to Trigger Adaptive Immune Responses. Immunity. 2015; 43(4):764-75) (the contents of which is incorporated by reference in its entirety). This assay detects the activation status of splenic dendritic cells in response to SIRPα/CD47 inhibitors or to infused sheep red blood cells (RBC).
After 6 or 24 hours, mice were euthanized and their spleens excised, dissociated, and assessed by flow cytometry for populations of activated CD4+ dendritic cells (DCs) (FIG. 9A, left panel) or CD8+ dendritic cells (FIG. 9A, right panel); both populations of dendritic cells were also positive for MHC II (I-Ab), CD11c, and DC1R2.

The subject of assay [3] is MCF7 (low Her2-expressing breast cancer cell line). The assay is described as follows: Macrophage engulfment of MCF7 cells. It is filed as cell-based, human. The following applies: monotherapy.

As for “SIRPα-Fc-CD40L: generic name of the SIRPαECD-Fc-CD40LECD chimeric protein; human or murine version according to the experiment”, the binding result with parental CHOK1 cells was “not to parental CHOK1 cells”. The “simultaneous binding of SIRPα-domain to hCD47 and CD40L-domain to hCD40” value in assay [1] was “simultaneous binding”. Besides, in assay [2] (combination with rituximab), the “induction of type I interferon genes” value was “enhanced”. Further, the “macrophage activation and type I interferon gene expression” value in assay [2] (monotherapy, 2 hours) is “induced macrophage activation and the expression of type I interferon genes”. The phagocytosis-stimulating activity result is on record as “unable to reduce” in the assay with Toledo lymphoma cells (CALR Block (calreticulin blocking peptide)); “not impacted” in the assay on Toledo lymphoma cells (CD40 Block); “partially inhibited” with Toledo lymphoma cells (Fc Block); “greatly reduced” in the assay with Toledo lymphoma cells (calreticulin blocking peptide and Fc receptor block together). The “proportion of overall splenic DCs vs antibody treated groups” value in the assay on splenic dendritic cells was “higher proportion of overall splenic DCs”. The phagocytosis result in assay [3] is recorded as “demonstrated monotherapy activity”.
